Experimental data published in publication PMC12396409, “Screening and hit evaluation of a microbial metabolite library against the pathogenic Plasmodium falciparum and Toxoplasma gondii parasites” (International Journal for Parasitology: Drugs and Drug …, 2025).
Where two headings read alike, the source gives them in different places. *1 amine or outer side, *2 acyl side, *3 side chain or, on linkers, in order; H or OH if unused. Where a SMILES comes first, the peptide text is derived from it. Bridges are numbered along the chain shown (N, C = ends). [ ]: non-standard residue; d: D form. The star is where a group is joined. hTyr(3S-OH,4S-OH,3'-OSO3H) = N[C@H](C(=O)O)[C@H](O)[C@@H](O)c1ccc(O)c(OS(=O)(=O)O)c1; pTerphenylCO(4''-OnC5H11) = CCCCCOc1ccc(-c2ccc(-c3ccc(C(=O)*)cc3)cc2)cc1; Orn(4R-OH,5R-OH) = O=C([C@H](C[C@@H](O)[C@@H](O)N[*:3])N[*:1])[*:2]; hTyr(3S-OH,4S-OH) = N[C@H](C(=O)O)[C@H](O)[C@@H](O)c1ccc(O)cc1; Pro(3S-OH,4S-Me) = C[C@H]1CN[C@H](C(=O)O)[C@H]1O; Gln(3R-OH) = NC(=O)C[C@@H](O)[C@H](N)C(=O)O; Hyp = O=C(O)[C@@H]1C[C@@H](O)CN1

What was measured:
[1] = tested on: P. falciparum 3D7 parasites; assay: P. falciparum growth inhibition assay, 2-cycle (120 h treatment), delayed-death screen and dose-response; format: cell-based, Plasmodium falciparum; details: for activity at 2 µg/mL: Plasmodium falciparum, 3D7
[2] = tested on: P. falciparum 3D7 parasites; assay: P. falciparum growth inhibition assay, 1-cycle (72 h treatment), SYBR DNA staining (library screen at 2 μg/mL and dose-response); format: cell-based, Plasmodium falciparum; details: for activity at 2 µg/mL: Plasmodium falciparum, 3D7
[3] = tested on: T. gondii RH strain (RH-Tub-eYFP) tachyzoites; assay: microbe, parasite or virus in culture; format: cell-based, Toxoplasma gondii; details: 72 h; for percent parasite growth at 2 µg/mL: Toxoplasma gondii

Question: With `CCCCCCCC(=O)N[C@H]1CCOC1=O` [BIA-O1496] as the molecule, how does the Pf_120h_%Growth_Rep1 ([1]; P. falciparum 3D7, 120 h, parasite screen at 2 μg/mL, % growth, replicate 1) read?
Answer: 82.04%

Question: What about the Pf_120h_%Growth_Rep2 ([1]; P. falciparum 3D7, 120 h, parasite screen at 2 μg/mL, % growth, replicate 2) of the same molecule?
Answer: 138.56%

Question: And the Pf_72h_%Growth_Rep1 ([2]; P. falciparum 3D7, 72 h, parasite screen at 2 μg/mL, % growth, replicate 1)?
Answer: 81.24%

Question: And the Pf_72h_%Growth_Rep2 ([2]; P. falciparum 3D7, 72 h, parasite screen at 2 μg/mL, % growth, replicate 2)?
Answer: 83.86%

Question: What about the Tg_72h_%Growth_Rep1 ([3]; T. gondii, parasite screen at 2 μg/mL, % growth, replicate 1) of the same molecule?
Answer: 127.37%

Question: What about the Tg_72h_%Growth_Rep2 ([3]; T. gondii, parasite screen at 2 μg/mL, % growth, replicate 2) of the same molecule?
Answer: 91.78%

Question: What does the source list for `C[C@@H](O)[C@@H]1NC(=O)[C@@H](N)C[C@@H](O)[C@@H](O)NC(=O)[C@@H]2[C@@H](O)[C@@H](C)CN2C(=O)[C@H]([C@H](O)CC(N)=O)NC(=O)[C@H]([C@H](O)[C@@H](O)c2ccc(O)c(OS(=O)(=O)O)c2)NC(=O)[C@@H]2C[C@@H](O)CN2C1=O` [FR 179642] (H-[Orn(4R-OH,5R-OH)]T[Hyp][hTyr(3S-OH,4S-OH,3'-OSO3H)][Gln(3R-OH)][Pro(3S-OH,4S-Me)]; lactam 1-C)?
Answer: Pf_120h_%Growth_Rep1 ([1]; library screen at 2 μg/mL, 120 h, % growth, replicate 1): 98.57%; Pf_120h_%Growth_Rep2 ([1]; library screen at 2 μg/mL, 120 h, % growth, replicate 2): 95.35%; Pf_72h_%Growth_Rep1 ([2]; library screen at 2 μg/mL, 72 h, % growth, replicate 1): 86.67%; Pf_72h_%Growth_Rep2 ([2]; library screen at 2 μg/mL, 72 h, % growth, replicate 2): 86.11%; Tg_72h_%Growth_Rep1 ([3]; library screen at 2 μg/mL, % growth, replicate 1): 133.49%; Tg_72h_%Growth_Rep2 ([3]; library screen at 2 μg/mL, % growth, replicate 2): 86.61%

Question: Which results are given for `CC[C@H](C)[C@H]1NC(=O)c2c1n(C)c1ccccc1c2=O` [Quinolactacin A1]?
Answer: Pf_120h_%Growth_Rep1 ([1]; P. falciparum, 120 h, parasite screen 2 μg/mL, % growth, replicate 1): 17.07%; Pf_120h_%Growth_Rep2 ([1]; P. falciparum, 120 h, parasite screen 2 μg/mL, % growth, replicate 2): -10.01%; Pf_72h_%Growth_Rep1 ([2]; P. falciparum, 72 h, parasite screen 2 μg/mL, % growth, replicate 1): 15.83%; Pf_72h_%Growth_Rep2 ([2]; P. falciparum, 72 h, parasite screen 2 μg/mL, % growth, replicate 2): 6.94%; Tg_72h_%Growth_Rep1 ([3]; T. gondii, parasite screen 2 μg/mL, % growth, replicate 1): 131.04%; Tg_72h_%Growth_Rep2 ([3]; T. gondii, parasite screen 2 μg/mL, % growth, replicate 2): 75.52%

Question: With `CCCCCOc1ccc(-c2ccc(-c3ccc(C(=O)N[C@H]4C[C@@H](O)[C@@H](O)NC(=O)[C@@H]5[C@@H](O)[C@@H](C)CN5C(=O)[C@H]([C@@H](C)O)NC(=O)[C@H]([C@H](O)[C@@H](O)c5ccc(O)cc5)NC(=O)[C@@H]5C[C@@H](O)CN5C(=O)[C@H]([C@@H](C)O)NC4=O)cc3)cc2)cc1` [Anidulafungin] ({pTerphenylCO(4''-OnC5H11)}-[Orn(4R-OH,5R-OH)]T[Hyp][hTyr(3S-OH,4S-OH)]T[Pro(3S-OH,4S-Me)]; lactam 1-C) as the molecule, how does the activity at 2 µg/mL ([1]; library screen at 2 μg/mL, 120 h, % growth, replicate 1, read-out: Pf_120h_%Growth_Rep1) read?
Answer: 162%

Question: And the activity at 2 µg/mL ([1]; library screen at 2 μg/mL, 120 h, % growth, replicate 2, read-out: Pf_120h_%Growth_Rep2)?
Answer: 103%

Question: What about the activity at 2 µg/mL ([2]; library screen at 2 μg/mL, 72 h, % growth, replicate 1, read-out: Pf_72h_%Growth_Rep1) of the same molecule?
Answer: 93.1%

Question: What about the activity at 2 µg/mL ([2]; library screen at 2 μg/mL, 72 h, % growth, replicate 2, read-out: Pf_72h_%Growth_Rep2) of the same molecule?
Answer: 85.8%

Question: And the percent parasite growth at 2 µg/mL ([3]; library screen at 2 μg/mL, % growth, replicate 1, read-out: Tg_72h_%Growth_Rep1)?
Answer: 88.8%

Question: What about the percent parasite growth at 2 µg/mL ([3]; library screen at 2 μg/mL, % growth, replicate 2, read-out: Tg_72h_%Growth_Rep2) of the same molecule?
Answer: 95.8%

Question: What does the source list for `CC(=O)N[C@H](CO)[C@H](O)c1ccc([N+](=O)[O-])cc1` [Corynecin I]?
Answer: Pf_120h_%Growth_Rep1 ([1]; P. falciparum, 120 h, screen at 2 μg/mL, replicate 1): 83.28%; Pf_120h_%Growth_Rep2 ([1]; P. falciparum, 120 h, screen at 2 μg/mL, replicate 2): 82.34%; Pf_72h_%Growth_Rep1 ([2]; P. falciparum, 72 h, screen at 2 μg/mL, replicate 1): 83.09%; Pf_72h_%Growth_Rep2 ([2]; P. falciparum, 72 h, screen at 2 μg/mL, replicate 2): 83.78%; Tg_72h_%Growth_Rep1 ([3]; T. gondii, screen at 2 μg/mL, replicate 1): 123.69%; Tg_72h_%Growth_Rep2 ([3]; T. gondii, screen at 2 μg/mL, replicate 2): 87.57%

Question: Which results are given for `COC1CC(OC2C(C)OC(OC3C(C)=CCC4CC(CC5(CCC(C)C(C(C)C)O5)O4)OC(=O)C4C=C(C)C(O)C5OCC(=CC=CC3C)C45O)CC2OC)OC(C)C1O` (stereo not shown) [BIA-I1117]?
Answer: Pf_120h_%Growth_Rep1 ([1]; P. falciparum 3D7, 120 h, library screen at 2 μg/mL, % growth, replicate 1): 88.89%; Pf_120h_%Growth_Rep2 ([1]; P. falciparum 3D7, 120 h, library screen at 2 μg/mL, % growth, replicate 2): 109.63%; Pf_72h_%Growth_Rep1 ([2]; P. falciparum 3D7, 72 h, library screen at 2 μg/mL, % growth, replicate 1): 83.64%; Pf_72h_%Growth_Rep2 ([2]; P. falciparum 3D7, 72 h, library screen at 2 μg/mL, % growth, replicate 2): 117.79%; Tg_72h_%Growth_Rep1 ([3]; T. gondii RH, library screen at 2 μg/mL, % growth, replicate 1): 121.89%; Tg_72h_%Growth_Rep2 ([3]; T. gondii RH, library screen at 2 μg/mL, % growth, replicate 2): 92.41%

Question: With `CO[C@H]1C[C@H](O[C@@H]2/C(C)=C/C[C@@H]3C[C@@H](C[C@]4(CC[C@H](C)[C@@H](C5CCCCC5)O4)O3)OC(=O)[C@@H]3C=C(C)/C(=N/O)[C@H]4OC/C(=C\C=C\[C@@H]2C)[C@]43O)O[C@@H](C)[C@@H]1O` [selamectin, reference compound] as the molecule, how does the activity at 2 µg/mL ([1]; P. falciparum, 120 h, parasite screen 2 μg/mL, % growth, replicate 1, read-out: Pf_120h_%Growth_Rep1) read?
Answer: 2.99%

Question: What about the activity at 2 µg/mL ([1]; P. falciparum, 120 h, parasite screen 2 μg/mL, % growth, replicate 2, read-out: Pf_120h_%Growth_Rep2) of the same molecule?
Answer: 8.34%

Question: What about the “selectivity for P. falciparum in the screens” value [2] of the same molecule?
Answer: selective for P. falciparum

Question: What about the activity at 2 µg/mL ([2]; P. falciparum, 72 h, parasite screen 2 μg/mL, % growth, replicate 1, read-out: Pf_72h_%Growth_Rep1) of the same molecule?
Answer: 3.56%

Question: And the activity at 2 µg/mL ([2]; P. falciparum, 72 h, parasite screen 2 μg/mL, % growth, replicate 2, read-out: Pf_72h_%Growth_Rep2)?
Answer: 6.13%

Question: What about the percent parasite growth at 2 µg/mL ([3]; read-out: Tg_72h_%Growth_Rep1) of the same molecule?
Answer: 116%

Question: And the percent parasite growth at 2 µg/mL ([3]; read-out: Tg_72h_%Growth_Rep2)?
Answer: 78.2%
